Biological target: T1, proTNFα convertase enzyme (TACE) (Homo sapiens, UniProt P78536)
T1 construct: partially purified, isolated enzyme assay, the enzyme being obtained from the membranes of THP-1; endogenous in cells; host or cells: THP-1 cell membranes, partially purified as in Mohler et al. (1994) Nature 370:218-220
Assay: partially purified isolated enzyme assay for proTNFα convertase (TACE)
Type: biochemical
Details: 10 μM of compound; enzyme from membranes of THP-1; 26° C. for 4 hours
Protocol: Recombinant human proMMP13 may be expressed and purified as described by Knauper et al. [V. Knauper et al., (1996) The Biochemical Journal 271:1544-1550 (1996)]. […] Activity is determined by measuring the fluorescence at λex 328 nm and λem 393 nm. Percent inhibition may be calculated as follows: % Inhibition is equal to the [Fluorescenceplus inhibitor−Fluorescencebackground] divided by the [Fluorescenceminus inhibitor−Fluorescencebackground].
The ability of the compounds to inhibit proTNFα convertase enzyme (TACE) has been assessed using a partially purified, isolated enzyme assay, the enzyme being obtained from the membranes of THP-1 as described by K. M. Mohler et al., (1994) Nature 370:218-220. The purified enzyme activity and inhibition thereof was determined by incubating the partially purified enzyme in the presence or absence of test compounds using the substrate 4′,5′-Dimethoxy-fluoresceinyl Ser.Pro.Leu.Ala.Gln.Ala.Val.Arg.Ser.Ser.Ser.Arg.Cys(4-(3-succinimid-1-yl)fluorescein)-NH2 in assay buffer (50 mM Tris HCl, pH 7.4 containing 0.1% (w/v) Triton X-100 and 2 mM CaCl2), at 26° C. for 4 hours. The amount of inhibition was determined as for MMP13 except λex 485 nm and λem 538 nm were used. […]

T1 sequence (P78536 215-824): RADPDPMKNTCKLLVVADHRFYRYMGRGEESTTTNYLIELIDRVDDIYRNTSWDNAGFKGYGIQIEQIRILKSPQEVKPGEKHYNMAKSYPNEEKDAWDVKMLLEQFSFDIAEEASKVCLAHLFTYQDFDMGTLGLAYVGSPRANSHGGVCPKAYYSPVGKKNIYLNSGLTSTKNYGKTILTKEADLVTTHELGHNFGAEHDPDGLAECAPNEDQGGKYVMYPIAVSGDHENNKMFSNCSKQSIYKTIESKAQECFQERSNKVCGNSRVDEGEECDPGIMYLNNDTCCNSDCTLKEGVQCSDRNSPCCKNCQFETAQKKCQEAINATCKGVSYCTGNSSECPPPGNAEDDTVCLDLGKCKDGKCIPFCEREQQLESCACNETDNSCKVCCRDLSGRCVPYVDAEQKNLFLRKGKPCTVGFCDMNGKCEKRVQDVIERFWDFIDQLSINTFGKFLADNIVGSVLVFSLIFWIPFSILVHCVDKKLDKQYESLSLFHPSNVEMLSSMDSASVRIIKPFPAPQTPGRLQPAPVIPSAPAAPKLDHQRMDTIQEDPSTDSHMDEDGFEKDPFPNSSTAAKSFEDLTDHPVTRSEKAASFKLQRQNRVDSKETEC

inhibition at 10 µM	Compound
81%	CC(C)Oc1ccccc1OC1CCN(S(=O)(=O)CC(c2ccccc2)N(O)C=O)CC1 (racemic) [Example 8, (R/S)-hydroxy(2-{[4-(2-isopropoxyphenoxy)piperidin-1-yl]sulphonyl}-1-phenylethyl)formamide]
76%	CC(C)NC(=O)c1ccccc1OC1CCN(S(=O)(=O)CC(c2ccccc2)N(O)C=O)CC1 (racemic) [Example 14]

Reference: patent US20060173041A1, “Sulphonylpiperidine derivatives containing an aryl or heteroaryl group for use as matrix metalloproteinase inhibitors” (priority 2002, published 2006)
